The record followed here is US20150113681A1, “COMPOSITION AND METHOD FOR ENHANCING PLANT TRANSFORMATION” (SYNGENTA PARTICIPATIONS AG, priority 2013, published 2015).

For test [1], the system named is sugarcane callus. Nature of the test: Sugarcane transformation, glyphosate/EPSPS selection with differing sucrose levels in selection media. It counts as cell-based, sugarcane (Saccharum). As for the experimental part: The method of the present invention includes embryogenic responses initiated and/or cultures established from sugar cane young leave rolls by culturing on callus induction medium. Established embryogenic cultures were weighted, and then inoculated and co-cultivated with the Agrobacterium tumefaciens strain EHA101 (Agrobacterium) containing the desired vector construction. Agrobacterium was cultured from glycerol stocks on solid YPC medium (100 mg/L spectinomycin and any other appropriate antibiotic) for about two days at 28° C. Agrobacterium is re-suspended in liquid MS-D2 medium. The Agrobacterium culture was diluted to an OD600 of 0.3-0.4 and acetosyringone is added to a final concentration of 400 uM. Acetosyringone was added before mixing the solution with the sugar cane cultures to induce Agrobacterium for DNA transfer to the plant cells. For inoculation, the cultures were immersed in the bacterial suspension. The liquid bacterial suspension is removed and the inoculated cultures were placed on empty plate for co-cultivation and incubated at 22° C. for two days. The cultures were then transferred to callus induction medium with Ticarcillin (400 mg/liter) to inhibit the growth of Agrobacterium and cultured for 4-10 days at 28° C. in dark. Referring to Table 3 below, for constructs utilizing the EPSPS selectable marker gene, cultures are transferred to selection S1 medium containing glyphosate as the selection agent and 400 mg/liter Ticarcillin and cultured for 3-4 weeks in the dark. For different treatments, the concentration of sucrose varied from 0 to 30 g/l and glyphosate level varied from 0.1 to 5 mM. […] Resistant colonies were then transferred to regeneration medium, and grown in the dark for 7 days, and then moved to the light growth room for 14 days. Regenerated shoots were transferred Rooting media for 3-4 weeks and then moved to the greenhouse when they are large enough and have adequate roots. Plants are transplanted to soil in the greenhouse (To generation), and grown to maturity.

Test [2] deals with maize immature embryos. Nature of the test: Maize transformation, glyphosate/EPSPS selection with differing sucrose levels in selection media. It counts as cell-based, Zea mays (corn). The following applies: glyphosate selection. As for the experimental part: (§1) Transformation of immature maize embryos is performed essentially as described in Negrotto et al., (2000) Plant Cell Reports 19: 798-803. Various media constituents described therein can be substituted. For example, the selectable marker gene and the selection agent can be modified, as in the examples below.
(§2) The genes used for transformation are cloned into a vector suitable for maize transformation as described above. Vectors used contain the either the PAT gene or the EPSPS gene as a selectable marker. PAT confers resistance to bialaphose, and EPSPS confers resistance to glyphosate.
(§3) Preparation of Agrobacterium tumefaciens: Agrobacterium strain LBA4404 (pSB1) containing the plant transformation plasmid is grown on YPC (yeast extract (5 g/L), peptone (10 g/L), NaCl (5 g/L), CaCl2.2H2O (1 g/L), 15 g/l agar, pH 6.8) solid medium for 2 to 4 days at 28° C. Approximately 0.8×10^9 Agrobacteria are suspended in inoculation medium supplemented with 100 μM acetosyringone (As) Bacteria are pre-induced in this medium for about 20 to 240 minutes.
(§4) Inoculation: Immature embryos from are excised from 8-12 day old ears after pollination. The isolated mixture of endosperms with immature embryos are suspended in the inoculation medium and poured through a 1500 um sieve after shaking. The immature embryos are captured on a 380 um sieve after pouring the suspension through. Immature embryos are gently removed from the sieve and suspended in Agrobacterium suspension on co-cultivation medium using a sterile scalpel blade after 5 min 45° C. heat shock. The immature embryo suspension is spread evenly on the co-cultivation medium and the excess Agrobacterium suspension is removed using a sterile transfer pipette and filter papers. The immature embryos are then spaced and flipped with round scutellum side up and then cultured in the dark for two to three days. Subsequently, between 20 and 45 embryos per petri plate are transferred to the medium AW5Dicamba100Ti and cultured in the dark for 28° C. for 10-14 days for callus induction.
Following co-cultivation and callus induction, the transformed calli are step-wisely selected on MS medium or MS medium contained differing concentrations of sucrose (5, 10 and 20, g/l) and glyphosate (2 mg/l) as indicated in Table 2.
In one embodiment of the present invention, in an incubation selection period referred to in Table 2 as S1, 10-20 calli from callus induction medium were transferred onto selection medium S1 and cultured for approximately 2 weeks at 28° C. in the dark. Each callus is originated from an immature embryo.
For the selection period referred to as S2, about 9 to 10 calli cultured in selection step S1 were transferred to each plate containing selection medium S2 and then cultured for approximately 2 weeks at 28° C. in dark.
For the selection period referred to as S3, about 9 to 10 calli cultured in selection period S2 were transferred to selection medium of selection period S3 containing 20 g/l sucrose and 2 mM glyphosate. and cultured for approximately 2 weeks at 28° C. in the dark.
In another embodiment and referring to Table 2, about 10 to 20 calli per plate from callus induction medium were transferred onto selection medium of selection period S1. and cultured for approximately 2-3 weeks at 28° C. in the dark. Each callus was originated from an immature embryo. About 9 to 10 calli per plates were transferred to selection medium of selection period S2. and cultured for approximately 2 weeks at 28° C. in the dark.
Regeneration of Transformed Plants: Glyphosate-resistant embryogenic callus were selected under dissecting microscope and 4 embryogenic calli per plate were transferred to regeneration medium. and cultured for approximately 2 weeks at 28° C. in the dark. The cultures were subsequently transferred to a light room for 14 days at 25° C. with a 16 hour photoperiod. […]

The subject of test [3] is maize immature embryos. Nature of the test: Maize transformation, bialaphos/PAT selection with differing sucrose levels in selection media. It counts as cell-based, Zea mays (corn). As for the experimental part: as §1, §2, §3, §4
Following co-cultivation and callus induction, the transformed calli are step-wise selected on MS medium or MS medium containing alternating concentrations of sucrose (5, 10 and 20, g/l) and bialaphos (5 and 7.5 mg/l) as indicated in Table 1. The controls comprise calli selected on MS medium supplemented with 20 g/l sucrose and 5 or 7.5 mg/l bialaphos for 4 to 6 weeks at 2 to 3 week intervals.
In a first selection period referred to in Table 1 as 51, about 10-20 calli are transferred from callus induction medium comprising 30 g/L sucrose onto 51 medium MS medium contained 5 g/l sucrose and 7.5 mg/l bialaphos and cultured for approximately 2 weeks at 28° C. in the dark. Each callus was originated from an immature embryo. For the second selection period, referred to in Table 1 as S2, about 9 to 10 calli of 51 are transferred to each plate containing S2 medium comprising 10 g/l sucrose and 7.5 mg/l bialaphose and then cultured for approximately 2 weeks at 28° C. in dark. For the third selection period referred to as S3, 9 to 10 calli are transferred from each S2 plate to S3 medium contained 20 g/l sucrose and 5 mg/l bialaphos and cultured for approximately 2 weeks at 28° C. in dark.
In another embodiment of the invention, in the first selection period S1 about 10 to 20 calli from each plate were transferred from callus induction medium comprising 30 g/L sucrose onto S1 medium containing 10 g/L of sucrose and 7.5 mg/l bialaphos and cultured for approximately 3 weeks at 28° C. in the dark. Each callus was originated from an immature embryo. 9 to 10 calli per plate were transferred from the S1 medium to S3 medium containing 20 g/L of sucrose and cultured for 2 weeks at 28° C. in dark. […]

Setting [4] is: control, 20 g/L sucrose, bialaphos selection.

Each structure is given as a SMILES string.

For the molecule `OC[C@H]1O[C@@](CO)(O[C@H]2O[C@H](CO)[C@@H](O)[C@H](O)[C@H]2O)[C@@H](O)[C@@H]1O` [sucrose], the transformation frequency is recorded as more than 7 % per gram fresh tissue in test [1] (altering sucrose level and adjusting glyphosate concentration in step-wise selection); 2.4 % per gram of fresh tissues in test [1] (sucrose concentration reduced to 5 g/l in selection medium); “improved” in test [1] (sucrose concentration reduced to 10 and 15 g/l); 23.5% in test [3] (5 g/L sucrose in bialaphos selection media, first round of selection (S1)); 16.9% in test [3] (10 g/L sucrose in bialaphos selection media, first round of selection (S1)); 7.6% in test [3] (setting [4]). Also, the “recovery of transgenic plants” value in test [1] (standard control, MS medium with 30 g/l sucrose and 3 mM glyphosate) is “no transgenic plants were recovered”. Besides, the regeneration frequency is 87.4% in test [2] (sucrose 5 g/L in S2 followed by 20 g/L in S3); 86.4% in test [2] (sucrose 10 g/L in S2 followed by 20 g/L in S3); 7.9% in test [2] (negative control, sucrose 20 g/L); “more than 65%” in test [3] (5 and 10 g/L sucrose in S1 bialaphos selection); 37.4% in test [3] (setting [4]). The “frequency of independent stable transgenic events (transformation frequency)” value in test [2] (sucrose 5 g/L in second round (S2) followed by 20 g/L in third round (S3)) is reported as 29.5%. Besides, the “frequency of independent stable transgenic events” value was 18.3% in test [2] (sucrose 10 g/L in second round (S2) followed by 20 g/L in third round (S3)) and 4.8% in test [2] (negative control, standard sucrose concentration 20 g/L). Besides, the “transformation frequency increase compared to the control” value in test [3] (5 g/L sucrose in S1 bialaphos selection vs 20 g/L control) turned out to be 3.1 fold; in test [3] (10 g/L sucrose in S1 bialaphos selection vs 20 g/L control) it was 2.2 fold. The escape rate in test [3] (5 g/L sucrose, bialaphos selection) is 2.4%; in test [3] (setting [4]), 11.8%.
